Where a chain is given by its changes, count along the chain named. “Also recorded” adds a separate entry of the source. Like-named read-outs stand apart in the source and are kept apart here.
Legend:
LNCaP cells = assay: LNCaP cell proliferation assay (androgen deprived, AlamarBlue); type: cell-based; conditions: 10^−10M, 0.1% DMSO, steroid depleted conditions
Description: To determine the optimal DHT concentration and length of treatment required for cell proliferation assays, we tested a range of DHT concentrations in 0.1% DMSO for 5 or 7 days in LNCaP cells cultured in FBS stripped phenol red free media. […] Media and treatments were replaced every second incubation day (FIGS. 12 A and B)
For cell viability (end point) assays LNCaP, PC-3 and PWR-1E cells were seeded at 2.5*10^4/ml density in 200 μl volume of a 96-well plate in triplicate and incubated for 24 hours prior testing. Test compounds were included at different concentrations to achieve a final concentration of 0.5% DMSO in each well. Effect of 0.5% DMSO on cell-viability was also evaluated. Cell viability was assessed after 24 hours of treatment using 10% Alamar Blue reagent (Invitrogen) for each well. Cell viability was monitored by the reduction of resazurin, a blue, cell-permeable and non-toxic compound, to resorufin, a red and highly fluorescent product. Viable cells continuously convert resazurin to resorufin, increasing the overall colour and fluorescence of the media surrounding cells. Fluorescence intensity can be quantitatively determined with a fluorescence microplate reader at excitation/emission 544 nm/590 nm (Spectramax Gemini). For hormone dependent cell proliferation assays in androgen deprived LNCaP cells, cells were seeded at 2*10^4 cells/ml in a 24-well plate in triplicate. Cells were plated in phenol red free RPMI Glutamax (Invitrogen) supplemented with 10% charcoal-stripped FBS to deplete endogenous steroids 48 hours prior the assay as described in previous reports. […] Cells were treated with different concentrations of test compounds with or without 0.1 nM DHT to achieve a final concentration of 0.1% DMSO in each well. A control for the vehicle was included to ensure no effect on viability could be detected. Media and treatments were replaced every second day, after washing the cells twice with 1×PBS. Supernatants were collected after five days for secreted PSA levels evaluation and cell proliferation was assessed for the same plate using Alamar Blue in order to exclude non-specific effects due to toxicity issues.

AR-LBD wt = molecular target: T1, AR-LBD wt (Homo sapiens, UniProt P10275); assay: Lanthascreen TR-FRET AR coactivator (D11-FxxLF) assay, AR-LBD wt; type: biochemical; conditions: for type of AR antagonism (full / partial): TR-FRET in agonist and antagonist mode; for IC50: TR-FRET, D11-FxxLF peptide, DHT = EC80
T1 sequence (P10275 669-900 limits assumed): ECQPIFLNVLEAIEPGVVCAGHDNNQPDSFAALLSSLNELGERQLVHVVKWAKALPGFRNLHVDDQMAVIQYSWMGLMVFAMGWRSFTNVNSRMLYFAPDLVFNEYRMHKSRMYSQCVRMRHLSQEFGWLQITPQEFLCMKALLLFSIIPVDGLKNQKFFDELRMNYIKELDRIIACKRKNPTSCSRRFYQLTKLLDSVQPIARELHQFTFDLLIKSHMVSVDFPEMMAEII

[1] = molecular target: T2, AR LBP (AR-LBD and Fluormone complex) (Rattus norvegicus, UniProt P15207); assay: Fluorescence polarization (PolarScreen) AR competitor assay; type: binding; conditions: for displacement of bound fluorescently-labelled ligand from the LBP: FP assay
T2 construct: purchased Invitrogen P3018
T2 sequence (P15207 651-882 limits assumed): T1 sequence (P10275 669-900 limits assumed)
Source text: The TR-FRET assay cannot differentiate between direct coactivator antagonists acting on the LBD surface and ‘classical’ AR antagonists which also functionally disrupt coactivator recruitment by displacing DHT from the ligand binding pocket.
(§1) Fluorescence polarization assays are susceptible by fluorescence interference/aggregation and light scattering issues by compounds present in the wells. This could lead to false positive or false negative hits. This problem is addressed in and the presence of false ‘hits’ can be determined by plotting the total fluorescence intensity of the assay versus the anisotropy for each compound.
(§2) To minimize the possibility of such false negative or positive reporting, the FP data was rigorously interrogated through examination of both auto-fluorescence and aggregation (FIG. 3). […] Diarylhydrazides are AR Potential Selective Coactivator Interaction Disruptors
PolarScreen Androgen Receptor Competitor Assay Kit Green (Invitrogen, cat no. P3018) was used to investigate the binding of the test compound to the LBP site, occupied by a high affinity ligand (Fluormone).
100× test compound solutions in DMSO were diluted in AR green buffer (Invitrogen) to achieve 2× concentrations and placed in a 384 well plate (Corning, cat no. 3576) with 40 μl volume capacity. AR-LBD was supplemented with 5 mM DTT to prevent protein degradation. AR-LBD and Fluormone (2×) mix are prepared separately and then added to each compound dilution to achieve a final concentration LBD-fluormone of 50 nM and 2 nM respectively. Plates were incubated protected from light for at least 4 hours. Controls included a maximum mP positive control, which consists of the AR-LBD and fluormone mix (2×), and a minimum mP control, containing only Fluormone (2×). A vehicle control was added to account for DMSO effect, and a blank control containing buffer only. Fluorescence polarization was measured with PHERAstar equipment (BMG LabTech) using an optic module with excitation at 485 nm and emission at 530 nm.

AR-LBD T877A mutant = molecular target: T3, AR-LBD T877A mutant (Homo sapiens, UniProt P10275, T878A); assay: TR-FRET coactivator assay, AR T877A mutant; type: biochemical; conditions: D11-FxxLF peptide, DHT = EC80
T3 construct: purchased Invitrogen PV4667
T3 sequence (P10275 669-900 T878A): T1 sequence (P10275 669-900 limits assumed) with T210A

[2] = molecular target: T4, Glucocorticoid Receptor (GR) LBD (Homo sapiens, UniProt P04150); assay: TR-FRET SRC1-4 coactivator recruitment assay, GR LBD; type: biochemical; conditions: Dexamethasone = EC80; for effect on SRC1-4 recruitment by GR LBD: 100 μM to 12.5 μM or single point 100 μM; for IC50: TR-FRET, ± SEM (n = 6), read-out: NR LBDs IC50 (μM) GR
T4 construct: purchased Invitrogen PV4683
T4 sequence (P04150 524-758 limits assumed): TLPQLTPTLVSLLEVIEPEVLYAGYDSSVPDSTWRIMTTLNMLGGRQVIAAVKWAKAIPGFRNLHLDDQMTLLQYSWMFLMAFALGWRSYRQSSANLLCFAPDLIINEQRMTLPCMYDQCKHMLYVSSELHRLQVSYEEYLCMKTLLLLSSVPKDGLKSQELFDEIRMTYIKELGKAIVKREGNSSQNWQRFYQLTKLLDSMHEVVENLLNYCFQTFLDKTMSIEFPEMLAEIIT
Description: (§3) Compound binding affinities for Progesterone Receptor (PR), Glucocorticoid Receptor (GR), Estrogen Receptor alpha and Estrogen Receptor beta were determined using TR-FRET (Table 2).
Dexamethasone bound receptor recruitment of the fluorescently labelled SCR1-4 coactivator was unimpaired at screening concentrations up to 100 μM for all the diarylhydrazides evaluated (FIG. 5).
(§4) Lanthascreen TR-FRET AR Coactivator Assay kit (Invitrogen, cat no. PV4381) was used to screen for potential coactivator disruptors.
(§5) TR FRET values were calculated at 10 flashes per well, using a delay time of 100 μs and integration time 200 μs as recommended by the Invitrogen assay guidelines. […] A serial dilution of compounds was firstly prepared in 100×DMSO (Sigma-Aldrich) starting from the maximum desired concentration to achieve a 12 point range concentration using 96-well polypropylene plates (Nalgene Nunc, Rochester, N.Y.). Each 100× solution was diluted to 2× concentration with TR-FRET co-regulator buffer A (Invitrogen proprietary buffer), yielding a final concentration of 1% DMSO in each well.
(§6) D11-FxxLF and Tb antibody were premixed in light protecting vials prior to use. A final concentration of DTT 5 mM was used in the assay buffer in order to prevent protein degradation. All plates (agonist and antagonist mode) were incubated between 2 and 4 hours at room temperature protected from light prior to TR-FRET measurement. […] Data was fitted using the sigmoidal dose response (variable slope) available from Graphpad Prism 5. Y=Bottom+(Top-Bottom)/(1+10^((Log IC50−X)*HillSlope))
(§7) The same procedure was used for AR T877A (Invitrogen cat no. PV4667), PR (Invitrogen cat no. PV4666), ER-α (Invitrogen cat no. PV4544), ER-β (Invitrogen cat no. PV4541) and GR (Invitrogen cat no. PV4683). The assay was adapted to exclude possible non-specific aggregation mechanism of inhibition by adding very low concentration of detergent Triton X-100 (0.001%) to the assay buffer following the Shoichet review guidelines [Shoichet BK (2006) Screening in a spirit haunted world. Drug Discov Today 11:607-615].

[3] = molecular target: T5, Progesterone Receptor (PR) LBD (Homo sapiens, UniProt P06401); assay: TR-FRET SRC1-4 coactivator recruitment assay, PR LBD; type: biochemical; conditions: Progesterone = EC80; for effect on PR recruitment of fluorescent labelled SRC1-4: 100 μM to 45 nM; for IC50: TR-FRET, ± SEM (n = 6), read-out: NR LBDs IC50 (μM) PR
T5 construct: purchased Invitrogen PV4666
T5 sequence (P06401 679-913 limits assumed): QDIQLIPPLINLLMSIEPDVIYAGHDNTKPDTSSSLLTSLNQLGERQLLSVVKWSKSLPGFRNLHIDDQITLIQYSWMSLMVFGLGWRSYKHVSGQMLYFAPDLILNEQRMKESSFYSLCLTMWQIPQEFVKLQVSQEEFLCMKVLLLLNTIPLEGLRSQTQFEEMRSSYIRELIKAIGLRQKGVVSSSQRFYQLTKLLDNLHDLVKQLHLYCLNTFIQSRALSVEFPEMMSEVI
Description: as §3, §4, §5, §6, §7

[4] = molecular target: T6, Estrogen Receptor alpha (ER-α) LBD (Homo sapiens, UniProt P03372); assay: TR-FRET PGC1-α coactivator recruitment assay, ERα LBD; type: biochemical; conditions: Estradiol = EC80; for effect on ERα recruitment of fluorescent labelled PGC1-α: 100 μM to 45 nM; for IC50: TR-FRET, ± SEM (n = 6), read-out: NR LBDs IC50 (μM) ER-α
T6 sequence (P03372 311-547 limits assumed): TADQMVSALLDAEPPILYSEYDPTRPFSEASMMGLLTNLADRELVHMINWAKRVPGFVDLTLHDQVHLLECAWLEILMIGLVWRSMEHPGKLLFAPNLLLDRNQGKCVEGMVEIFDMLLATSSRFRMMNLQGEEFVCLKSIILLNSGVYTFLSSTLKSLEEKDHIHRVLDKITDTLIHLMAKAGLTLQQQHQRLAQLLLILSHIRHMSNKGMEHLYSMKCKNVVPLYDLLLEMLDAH
Description: as §3
(§8) Selectivity of the diarylhydrazide scaffold for the AR was determined through a TR-FRET assay in ERα (FIGS. 8A & 9A1) and ERR (FIGS. 8B & 9A2). […] The non-LBP nature of this inhibition was confirmed by a FP assay (FIGS. 9C, 9B1 & 9B2).
as §4, §5, §6, §7

[5] = molecular target: Estrogen Receptor beta (ER-β) LBD (Homo sapiens, UniProt Q92731); assay: TR-FRET PGC1-α coactivator recruitment assay, ERβ LBD; type: biochemical; conditions: Estradiol = EC80; for effect on ERβ recruitment of fluorescent labelled PGC1-α: 100 μM to 45 nM; for IC50: TR-FRET, ± SEM (n = 6), read-out: NR LBDs IC50 (μM) ER-β
Description: as §3, §8, §4, §5, §6, §7

[6] = Solubility in FP assay buffer (fluorescence interference/aggregation check); type: physicochemical; conditions: high concentration (50 μM)
Source text: as §1, §2

Chain of Estrogen Receptor beta (ER-β) LBD (Q92731 264-498 limits assumed): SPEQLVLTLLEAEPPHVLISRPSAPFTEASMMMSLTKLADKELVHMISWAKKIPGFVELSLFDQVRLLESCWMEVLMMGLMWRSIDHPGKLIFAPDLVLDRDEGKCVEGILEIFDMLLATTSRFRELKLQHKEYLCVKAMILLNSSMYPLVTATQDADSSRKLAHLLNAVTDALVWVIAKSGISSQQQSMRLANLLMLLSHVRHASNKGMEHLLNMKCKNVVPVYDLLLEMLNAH

| SMILES | increase of LNCaP cell proliferation (LNCaP cells) | type of AR antagonism (full / partial) (AR-LBD wt) | displacement of bound fluorescently-labelled ligand from the LBP [1] | IC50 (AR-LBD wt; read-out: AR (wt)) | IC50 (AR-LBD wt; read-out: Activity (AR wt TR-FRET)) | IC50 (AR-LBD T877A mutant) | effect on SRC1-4 recruitment by GR LBD [2] | IC50 [2] | effect on PR recruitment of fluorescent labelled SRC1-4 [3] | IC50 [3] | effect on ERα recruitment of fluorescent labelled PGC1-α [4] | IC50 [4] | effect on ERβ recruitment of fluorescent labelled PGC1-α [5] | IC50 [5] | inhibition at 1 µM ([1]; FP, 1 μM, read-out: inhibition of the LBD-F complex) | solubility in the chosen assay buffer [6] |
| --- | --- | --- | --- | --- | --- | --- | --- | --- | --- | --- | --- | --- | --- | --- | --- | --- |
| C[C@]12CCC(=O)C[C@@H]1CC[C@@H]1[C@@H]2CC[C@]2(C)[C@@H](O)CC[C@@H]12 [DHT, dihydrotestosterone, reference compound] | 2 fold | – | – | – | – | – | – | – | – | – | – | – | – | – | – | – |
| COc1cc(/C=N/NC(=O)c2cc3c(ccc4ccccc43)o2)cc(I)c1O [MDG15] | – | full AR antagonists | inability to displace | – | – | – | – | – | – | – | – | – | – | – | – | – |
| O=C(N/N=C/c1cccc(O)c1O)c1cc2ccccc2cc1O [MDG173] | – | full AR antagonists | inability to displace | – | – | – | – | – | – | – | – | – | – | – | – | – |
| O=C(N/N=C/c1cc(Br)ccc1O)c1cc2ccccc2cc1O [MDG292] | – | full AR antagonism; also recorded: full AR antagonists | – | 13.3 ± 3.1 µM | 13.3 ± 3.1 µM | 12.4 ± 2.2 µM | do not affect | > 100 µM | partially inhibit | 22.5 ± 5.4 µM | partially inhibit | > 100 µM | partially inhibit | > 100 µM | – | – |
| O=C(N/N=C/c1cc2ccccc2cc1O)c1cc2ccccc2cc1O [MDG483] | – | full AR antagonists | – | – | – | – | do not affect | > 100 µM | partially inhibit | 8.4 ± 1.4 µM | partially inhibit | 10.2 ± 3 µM | partially inhibit | 12 ± 0.4 µM | ~0% | solubility issues |

— patent US9296716B2, “Androgen receptor ligands” (THE PROVOST, FELLOWS, FOUNDATION SCHOLARS, & THE OTHER …, priority 2011, dated 2016)
